Test systems include RPMI-8226 leukemia; HOP-92 NSCLC; PC-3 prostate; U251 CNS; SF-295 CNS; OVCAR-4 ovarian; UACC-62 melanoma; SK-MEL-2 melanoma; BT-549 breast; T-47D breast; NCI-H23 lung; K-562 leukemia; SN12C renal; RXF 393 renal; KM12 colon; COLO 205 colon; CCRF-CEM leukemia; MALME-3M melanoma.
Holding throughout (assay): DTP human tumour cell line panel, 48 h

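These data come from cells grown in 96-well plates and exposed to compound for 48 hours at five concentrations. TGI: concentration producing complete growth inhibition.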

14 compounds from PubChem BioAssay (NCI) can be followed below.

One may read the TGI as the concentration giving total growth inhibition. A low value points to greater sensitivity of the cells.

On to `C=CCCCC1CCCNC1=S` (centres undefined), for which the TGI with RPMI-8226 leukemia, in the experiment with HOP-92 NSCLC, in the experiment with PC-3 prostate, in the experiment with U251 CNS, in the experiment with SF-295 CNS and in the experiment with OVCAR-4 ovarian was > 100 µM throughout. Further, the TGI in the experiment on UACC-62 melanoma, in the experiment with SK-MEL-2 melanoma, with BT-549 breast, with T-47D breast, with NCI-H23 lung and in the experiment with K-562 leukemia was > 100 µM in each case. The TGI with SN12C renal, in the experiment with RXF 393 renal and in the experiment with KM12 colon was > 100 µM throughout.

`CCOC(=O)Nc1nn(C)c(=NCc2ccccc2)s1`: the TGI in the experiment on RPMI-8226 leukemia, with HOP-92 NSCLC, in the experiment on COLO 205 colon, in the experiment on PC-3 prostate, in the experiment on U251 CNS and in the experiment with SF-295 CNS was > 100 µM each time. The TGI in the experiment on OVCAR-4 ovarian, in the experiment on UACC-62 melanoma, in the experiment on SK-MEL-2 melanoma, in the experiment on BT-549 breast, in the experiment with T-47D breast and with K-562 leukemia was > 100 µM in each case. The TGI with SN12C renal, in the experiment on RXF 393 renal, with KM12 colon and in the experiment with CCRF-CEM leukemia was > 100 µM each time.

Turning to `CC1=N[C@](C)(C2CC3C=CC2C3=O)COC1=O` (some centres undefined), the TGI in the experiment with HOP-92 NSCLC, with COLO 205 colon, in the experiment on PC-3 prostate, in the experiment on U251 CNS, in the experiment with SF-295 CNS and in the experiment with OVCAR-4 ovarian was > 100 µM in each case. Besides, the TGI with UACC-62 melanoma, with BT-549 breast, in the experiment on MALME-3M melanoma, in the experiment on T-47D breast, with NCI-H23 lung and with K-562 leukemia was > 100 µM throughout. In addition, the TGI in the experiment on SN12C renal, in the experiment with RXF 393 renal, with KM12 colon and with CCRF-CEM leukemia was > 100 µM each time.

On to `COC(=O)C1(Cc2ccc3c(c2)CCC3)Cc2ccc3c(c2C1)CCC3` (centres undefined), for which the concentration for total growth inhibition (TGI) with RPMI-8226 leukemia was determined as 46.9 µM; in the experiment with HOP-92 NSCLC, 98.1 µM; in the experiment on COLO 205 colon, 39.2 µM; in the experiment with PC-3 prostate it was 55.9 µM; with U251 CNS, 37.1 µM; in the experiment with SF-295 CNS it was 60.7 µM. Moreover, the TGI was 99.1 µM in the experiment with OVCAR-4 ovarian; > 100 µM in the experiment with UACC-62 melanoma; 56.9 µM with BT-549 breast; 42 µM in the experiment on MALME-3M melanoma; 27.1 µM in the experiment on T-47D breast; 4.63 µM in the experiment on NCI-H23 lung. Further, the TGI with K-562 leukemia is > 100 µM; in the experiment with SN12C renal it was 56.3 µM; in the experiment with RXF 393 renal, 83.3 µM; in the experiment with KM12 colon, 54 µM; with CCRF-CEM leukemia, > 100 µM.

Consider `COc1ccc(C(=O)/C=C/c2cccnc2)cc1OC`, for which the TGI in the experiment on HOP-92 NSCLC turned out to be 26.7 µM; in the experiment on COLO 205 colon, 22.9 µM; in the experiment on PC-3 prostate it was 28 µM; in the experiment on U251 CNS it was 16.7 µM; with SF-295 CNS it was 26.3 µM; with OVCAR-4 ovarian it was 25.7 µM. Besides, the TGI in the experiment on UACC-62 melanoma came out at 28.4 µM; in the experiment with SK-MEL-2 melanoma, 27.3 µM; in the experiment on BT-549 breast, 19.3 µM; in the experiment on MALME-3M melanoma, 28.5 µM; in the experiment on T-47D breast, 22 µM; in the experiment with NCI-H23 lung, 22.9 µM. In addition, the concentration for total growth inhibition (TGI) in the experiment with K-562 leukemia was 43.8 µM; in the experiment with SN12C renal, 18.3 µM; in the experiment on RXF 393 renal it was 18.6 µM; with CCRF-CEM leukemia, > 100 µM.

In the case of `O=c1oc(-c2ccccc2)c(-c2ccccc2)n1-c1ccc(Br)cc1`, the concentration for total growth inhibition (TGI) in the experiment on HOP-92 NSCLC is > 100 µM; in the experiment with COLO 205 colon, > 100 µM; with PC-3 prostate, > 100 µM; in the experiment on U251 CNS, > 100 µM; in the experiment with SF-295 CNS it was > 100 µM; in the experiment with OVCAR-4 ovarian, 96.4 µM. In addition, the TGI in the experiment with UACC-62 melanoma was > 100 µM; in the experiment with SK-MEL-2 melanoma, > 100 µM; with BT-549 breast it was > 100 µM; with T-47D breast, > 100 µM; in the experiment with NCI-H23 lung, 85.3 µM; in the experiment with SN12C renal, > 100 µM. Also, the TGI in the experiment on RXF 393 renal, in the experiment on KM12 colon and with CCRF-CEM leukemia was > 100 µM throughout.

`Cc1ccc2c(c1)-c1c(C#N)c(N)nc(-c3ccccc3)c1CCS2(=O)=O`: the TGI with RPMI-8226 leukemia is 32.9 µM; with HOP-92 NSCLC it was > 100 µM; with COLO 205 colon it was > 56.3 µM; in the experiment with PC-3 prostate, > 100 µM; in the experiment with U251 CNS, > 90.7 µM; with SF-295 CNS, > 100 µM. Further, the TGI was > 100 µM with OVCAR-4 ovarian; > 100 µM in the experiment on UACC-62 melanoma; > 100 µM in the experiment with SK-MEL-2 melanoma; > 43.4 µM with BT-549 breast; > 100 µM in the experiment with MALME-3M melanoma; > 100 µM in the experiment on T-47D breast. The TGI with NCI-H23 lung is > 62.7 µM; in the experiment on K-562 leukemia it was 11.7 µM; in the experiment with SN12C renal, > 100 µM; in the experiment with KM12 colon, > 100 µM; in the experiment on CCRF-CEM leukemia, > 100 µM.

`Nc1ncnc2c1cnn2Cc1cn(COCC(O)CO)nn1` (centres undefined): the TGI in the experiment with HOP-92 NSCLC, with COLO 205 colon, with PC-3 prostate, in the experiment with U251 CNS, in the experiment on SF-295 CNS and in the experiment on OVCAR-4 ovarian was > 100 µM each time. Further, the TGI in the experiment with UACC-62 melanoma, in the experiment on SK-MEL-2 melanoma, in the experiment on BT-549 breast, with T-47D breast, with NCI-H23 lung and in the experiment with SN12C renal was > 100 µM each time. Besides, the TGI in the experiment on KM12 colon and with CCRF-CEM leukemia was > 100 µM in each case.

With `O=C1CCCCC/C1=C\c1ccc(Cl)cc1`, the TGI was 82.2 µM with RPMI-8226 leukemia; 98 µM with HOP-92 NSCLC; 40.8 µM in the experiment with COLO 205 colon; 48.4 µM in the experiment on PC-3 prostate; > 100 µM in the experiment with U251 CNS; 56.6 µM in the experiment with SF-295 CNS. For the same compound, the TGI is 84.9 µM with OVCAR-4 ovarian; > 100 µM with UACC-62 melanoma; > 100 µM in the experiment with SK-MEL-2 melanoma; > 100 µM in the experiment with BT-549 breast; > 100 µM with MALME-3M melanoma; > 100 µM in the experiment on T-47D breast. Moreover, the concentration for total growth inhibition (TGI) is > 100 µM with NCI-H23 lung, > 100 µM in the experiment on SN12C renal, 51.4 µM in the experiment on KM12 colon and 50.3 µM in the experiment on CCRF-CEM leukemia.

Regarding `NNCCc1n[nH]c(=O)n1N`, the TGI with RPMI-8226 leukemia, with HOP-92 NSCLC, in the experiment with COLO 205 colon, in the experiment on PC-3 prostate, with U251 CNS and with SF-295 CNS was > 100 µM each time. For the same compound, the TGI in the experiment with OVCAR-4 ovarian, in the experiment with UACC-62 melanoma, in the experiment on BT-549 breast, with MALME-3M melanoma, in the experiment with T-47D breast and with NCI-H23 lung was > 100 µM throughout. Moreover, the TGI in the experiment with K-562 leukemia, in the experiment with SN12C renal, in the experiment on RXF 393 renal, in the experiment with KM12 colon and in the experiment on CCRF-CEM leukemia was > 100 µM each time.

`CC(C)(C)OC(=O)N(CCNS(=O)(=O)c1cccc2cnccc12)CCC(=O)ON1C(=O)CCC1=O`: the TGI in the experiment with RPMI-8226 leukemia, with HOP-92 NSCLC, with COLO 205 colon, with PC-3 prostate, with U251 CNS and with SF-295 CNS was > 100 µM each time. For the same compound, the TGI in the experiment with OVCAR-4 ovarian, with UACC-62 melanoma, in the experiment with SK-MEL-2 melanoma, in the experiment with BT-549 breast, with MALME-3M melanoma and in the experiment on T-47D breast was > 100 µM throughout. The TGI with NCI-H23 lung, with K-562 leukemia, in the experiment on SN12C renal and with RXF 393 renal was > 100 µM in each case.

On to `Oc1ccc(/C=C/c2ccc3cccc(O)c3n2)cc1O`, for which the concentration for total growth inhibition (TGI) was 78 µM in the experiment with RPMI-8226 leukemia; > 100 µM in the experiment with HOP-92 NSCLC; 29.6 µM in the experiment with COLO 205 colon; 67.6 µM with PC-3 prostate; 20.6 µM in the experiment with U251 CNS; 76.9 µM with SF-295 CNS. In addition, the TGI in the experiment on OVCAR-4 ovarian was > 100 µM; in the experiment with UACC-62 melanoma, 23.8 µM; in the experiment on SK-MEL-2 melanoma, 36 µM; with BT-549 breast it was 4.03 µM; in the experiment with T-47D breast, 6.52 µM; in the experiment on K-562 leukemia, > 100 µM. Moreover, the TGI in the experiment with SN12C renal was 12.8 µM; in the experiment on RXF 393 renal it was 7.4 µM; in the experiment with KM12 colon, 33 µM; with CCRF-CEM leukemia, > 100 µM.

Turning to `CC(C)(CO)NC(=O)Nc1c(C(F)(F)F)cc(-c2ccccc2)[nH]c1=O`, the TGI with HOP-92 NSCLC, in the experiment on COLO 205 colon, in the experiment on PC-3 prostate, in the experiment with U251 CNS, with SF-295 CNS and in the experiment with UACC-62 melanoma was > 100 µM in each case. Besides, the TGI in the experiment on SK-MEL-2 melanoma, in the experiment with BT-549 breast, in the experiment with MALME-3M melanoma, in the experiment on T-47D breast, with NCI-H23 lung and in the experiment on K-562 leukemia was > 100 µM in each case. In addition, the TGI in the experiment on SN12C renal, in the experiment with RXF 393 renal, with KM12 colon and in the experiment on CCRF-CEM leukemia was > 100 µM in each case.

As to `COC(=O)C1=C(CCCCO[Si](C)(C)C(C)(C)C)NC(=O)N2[C@@H](CCOCc3ccccc3)CC[C@H]12`, the TGI with RPMI-8226 leukemia was > 100 µM; in the experiment on HOP-92 NSCLC it was 34.4 µM; with COLO 205 colon, 32.4 µM; in the experiment on PC-3 prostate it was 75.8 µM; in the experiment on U251 CNS it was 28.2 µM; with SF-295 CNS, > 100 µM. For the same compound, the TGI with OVCAR-4 ovarian is > 100 µM; in the experiment with UACC-62 melanoma, > 100 µM; with SK-MEL-2 melanoma, 35.8 µM; in the experiment with BT-549 breast it was 51 µM; with MALME-3M melanoma it was 47.3 µM; in the experiment with T-47D breast it was > 100 µM. Further, the TGI in the experiment on NCI-H23 lung is 67.9 µM; in the experiment on K-562 leukemia, > 100 µM; with SN12C renal, 32.7 µM; with KM12 colon, 44.2 µM; with CCRF-CEM leukemia it was 51.9 µM.
